Laboratory results: paper PMC5033714 (Neuron, 2016)

Columns and labels:
GluN1/2A receptors = GluN1/2A receptors (Rattus norvegicus, UniProt P35439+Q00959); assay type: cell-based; details: for increase of IC50 in 30 μM glycine compared to 3 μM glycine: 100 μM glutamate; for extent of inhibition of GluN1/2A / IC50: activated by 100 μM glutamate plus 3 μM glycine; for IC50: read-out: IC50 for inhibition of GluN1/2A
GluN1/2B-D receptors = assay type: cell-based
[1] = molecular target: GluN1-CC/2A receptors (GluN1-N499C+Q686C) (Rattus norvegicus, UniProt P35439+Q00959, N499C/Q686C); assay type: cell-based; details: 100 μM glutamate alone; glycine 300 μM, 7CKA 10 μM, TCN-201 5 μM, MPX-004 10 μM, MPX-007 30 μM
[2] = Solubility-limited maximal concentration in recording solution; assay type: physicochemical; details: extracellular recording solution pH 7.4, DMSO < 0.3%
GluN1/2B receptors = GluN1/2B receptors (Rattus norvegicus, UniProt P35439+Q00960); assay type: cell-based
[3] = molecular target: wild type GluN1/2A receptors (Rattus norvegicus, UniProt P35439+Q00959); assay type: cell-based
[4] = molecular target: GluN1/2A receptors with GluN2A-V783A (Rattus norvegicus, UniProt P35439+Q00959, V783A); experiment: Glycine concentration-response and Schild analysis, GluN2A-V783A; assay type: cell-based
[5] = molecular target: GluN1/2A receptors with GluN2A-V783F (Rattus norvegicus, UniProt P35439+Q00959, V783F); experiment: Glycine concentration-response and Schild analysis, GluN2A-V783F; assay type: cell-based; details: read-out: binding affinity KB
[6] = molecular target: GluN1/2A receptors with GluN1-F754L (Rattus norvegicus, UniProt P35439+Q00959, F754L); experiment: Glycine concentration-response and Schild analysis, GluN1-F754L; assay type: cell-based
[7] = molecular target: GluN1/2A receptors with GluN1-F754V (Rattus norvegicus, UniProt P35439+Q00959, F754V); experiment: Glycine concentration-response and Schild analysis, GluN1-F754V; assay type: cell-based
[8] = molecular target: GluN1/2A receptors with GluN1-Y535F (Rattus norvegicus, UniProt P35439+Q00959, Y535F); experiment: Schild analysis of TCN-201, GluN1-Y535F; assay type: cell-based
[9] = molecular target: GluN1/2A receptors with GluN1-Y535L (Rattus norvegicus, UniProt P35439+Q00959, Y535L); experiment: Schild analysis of TCN-201, GluN1-Y535L; assay type: cell-based
[10] = molecular target: GluN1/2A receptors with GluN1-R755A (Rattus norvegicus, UniProt P35439+Q00959, R755A); experiment: TCN-201 inhibition, GluN1-R755A; assay type: cell-based

GluN1/2A receptors with GluN1-F754V, sequence (Q00959 20-1464 limits assumed, other chains not shown): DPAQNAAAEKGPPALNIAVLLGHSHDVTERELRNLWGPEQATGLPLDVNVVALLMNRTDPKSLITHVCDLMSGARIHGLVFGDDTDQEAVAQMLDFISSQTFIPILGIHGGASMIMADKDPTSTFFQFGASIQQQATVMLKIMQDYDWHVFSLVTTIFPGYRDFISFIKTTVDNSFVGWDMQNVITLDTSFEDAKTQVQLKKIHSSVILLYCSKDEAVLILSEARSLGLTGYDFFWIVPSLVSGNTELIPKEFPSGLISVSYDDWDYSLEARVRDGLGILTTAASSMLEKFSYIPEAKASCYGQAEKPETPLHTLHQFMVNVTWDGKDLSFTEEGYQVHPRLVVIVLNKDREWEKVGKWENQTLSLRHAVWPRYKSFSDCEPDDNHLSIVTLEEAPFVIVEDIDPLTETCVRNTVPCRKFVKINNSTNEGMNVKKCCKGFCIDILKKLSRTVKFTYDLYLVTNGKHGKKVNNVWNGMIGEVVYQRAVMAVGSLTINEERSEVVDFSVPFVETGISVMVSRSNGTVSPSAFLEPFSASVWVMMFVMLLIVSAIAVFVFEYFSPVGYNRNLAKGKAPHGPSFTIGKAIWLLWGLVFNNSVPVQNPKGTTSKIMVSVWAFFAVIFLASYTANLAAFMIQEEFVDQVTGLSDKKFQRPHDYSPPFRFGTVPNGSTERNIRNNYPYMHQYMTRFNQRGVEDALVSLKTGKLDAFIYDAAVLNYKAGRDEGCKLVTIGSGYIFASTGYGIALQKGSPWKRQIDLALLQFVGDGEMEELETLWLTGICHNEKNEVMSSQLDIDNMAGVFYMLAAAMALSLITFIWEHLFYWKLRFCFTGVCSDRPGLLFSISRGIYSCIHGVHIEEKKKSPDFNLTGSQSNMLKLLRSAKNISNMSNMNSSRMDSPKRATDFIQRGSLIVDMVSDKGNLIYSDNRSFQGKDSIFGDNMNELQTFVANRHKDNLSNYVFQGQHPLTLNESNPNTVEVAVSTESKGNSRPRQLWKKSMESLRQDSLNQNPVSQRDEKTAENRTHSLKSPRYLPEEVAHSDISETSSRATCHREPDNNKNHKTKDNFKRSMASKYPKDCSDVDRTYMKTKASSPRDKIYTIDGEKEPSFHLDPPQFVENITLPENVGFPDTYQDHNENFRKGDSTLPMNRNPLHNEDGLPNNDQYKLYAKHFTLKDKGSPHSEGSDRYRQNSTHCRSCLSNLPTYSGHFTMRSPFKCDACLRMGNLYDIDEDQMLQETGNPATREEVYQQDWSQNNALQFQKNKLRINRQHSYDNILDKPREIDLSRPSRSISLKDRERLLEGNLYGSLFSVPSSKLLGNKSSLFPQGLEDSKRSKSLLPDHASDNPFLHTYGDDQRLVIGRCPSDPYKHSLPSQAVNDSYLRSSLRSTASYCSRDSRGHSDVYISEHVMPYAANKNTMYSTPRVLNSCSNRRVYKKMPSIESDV
GluN1/2A receptors, sequence (Q00959 20-1464 limits assumed, other chains not shown): as above
wild type GluN1/2A receptors, sequence (Q00959 20-1464 limits assumed, other chains not shown): as above

Compound | increase of IC50 in 30 μM glycine compared to 3 μM glycine (GluN1/2A receptors; GluN1/2A) [fold] | maximal inhibition (GluN1/2A receptors; GluN1/2A, 300 μM glycine) | extent of inhibition of GluN1/2A (GluN1/2A receptors) | IC50 (GluN1/2A receptors) [nM] | selectivity for GluN1/2A over GluN1/2B-D (GluN1/2B-D receptors) | effect on glutamate-activated responses from crosslinked GluN1-CC/2A [1] | maximal concentration used, limited by compound solubility [2] [µM] | further results
Cc1ncc(CNC(=O)c2cnc(CNS(=O)(=O)c3ccc(F)c(Cl)c3)cn2)s1 [MPX-004] | 3.8 | 71% ± 4% | nearly complete inhibition | ~200 | strict selectivity | significant potentiation | 10 | –
Cc1ncc(CNC(=O)c2cnc(CNS(=O)(=O)c3ccc(F)c(F)c3)c(C)n2)s1 [MPX-007] | 3.2 | 95% ± 1% | nearly complete inhibition | ~200 | – | – | 30 | glycine-sensitivity of inhibition of GluN1/2B (GluN1/2B receptors): sensitive to the glycine concentration; inhibition of GluN1/2B receptors (GluN1/2B receptors; 30 μM compound, 3 μM glycine, n = 6): 48% ± 3%; concentrations at which GluN1/2B-D receptors are inhibited (GluN1/2B-D receptors): 10 to 30 µM
O=C(NNC(=O)c1ccc(CNS(=O)(=O)c2ccc(F)c(Cl)c2)cc1)c1ccccc1 [TCN-201] | – | – | nearly complete inhibition | ~200 | strict selectivity | – | 5 | inhibition in 300 μM glycine (GluN1/2A receptors; GluN1/2A, 300 μM glycine): markedly diminished; maximal increase of glycine EC50 (1/α) [3]: 143 fold; allosteric constant α ([3]; Schild analysis): 0.007; allosteric constant α [4]: 0.001; Kb [5]: 186 nM; allosteric constant [6]: 0.018; binding affinity KB compared to wild type [6]: little to no change; allosteric constant [7]: 0.086; maximal increase of glycine EC50 (1/α) [7]: 12 fold; Kb ([7]; read-out: binding affinity KB): 131 nM; allosteric constant compared to wild type [8]: virtually unchanged; binding affinity KB compared to wild type [8]: virtually unchanged; allosteric constant [9]: 0.016; inhibition [10]: abolished
O=C(O)c1cc(O)c2ccc(Cl)cc2n1 [7CKA] | – | – | – | – | – | not sensitive | – | –
